Experiment [1] has as its system peripheral blood mononuclear cells (PBMC) stimulated with allogeneic PBMC or EBV-transformed human B cells (RPMI1788). Briefly: Mixed lymphocyte reaction (MLR) assay. The class given is cell-based. The note with it: 50% suppression of the MLR, [3H]-thymidine incorporation, read-out: MLR. The method in brief:
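Responder PBMC co-cultured in triplicate with 30 Gy-irradiated allogeneic PBMC or RPMI1788 B cells plus compound (DMSO stock 10 mM, diluted in medium). After 5 days at 37° C, 1 μCi [3H]-thymidine added for 16 h more; incorporated cpm counted and proliferation inhibition calculated.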
For orientation: Uptake of a labelled nucleoside into DNA is a usual measure of proliferation.

Experiment [2] relates to production of human TNF-α by PBMC in response to LPS. Briefly: TNF-α assay (LPS-stimulated PBMC, sandwich ELISA). In kind it is cell-based. The note with it: LPS 1 μg/ml, 72 hours, read-out: TNF α. On the procedure:
Peripheral blood mononuclear cells (herein referred as PBMC), in response to stimulation by lipopolysaccharide (hereinafter LPS), a gram-negative bacterial endotoxin, produce various […], in particular human TNF-α. Inhibition of the activation of PBMC can therefore be measured by the level of suppression of the production of TNF-α by PBMC in response to stimulation by LPS. Inhibition measurement was performed as follows: PBMC were isolated from heparinized peripheral blood by density gradient centrifugation over Lymphoprep (commercially available from Nycomed, Norway). LPS was then added to the PMBC suspension in complete medium (10^6 cells/ml) at a final concentration of 1 μg/ml. The pteridine derivative to be tested was added at different concentrations (0.1 μM, 1 μM and 10 μM) and the cells were incubated at 37° C. for 72 hours in 5% CO2. The supernatants were collected, then TNF-α concentrations were measured with respectively an anti-TNF-α antibody in a sandwich ELISA (Duo Set ELISA human TNFα, commercially available from R&D Systems, United Kingdom). The colorimetric reading of the ELISA was measured by a Multiskan RC plate reader (commercially available from ThermoLabsystems, Finland) at 450 nm (reference wavelength: 690 nm). Data analysis was performed with Ascent software 2.6. (also from ThermoLabsystems, Finland): a standard curve (recombinant human TNFα) was drawn and the amount (pg/ml) of each sample on the standard curve was determined. The % suppression of human TNFα production by the pyrido[3,2-d]pyrimidine derivatives of the invention was calculated using the formula: [formula]
A general note: In an ELISA, binding on a coated surface is turned into a signal by an enzyme label.

Where two headings read alike, the source gives them in different places.

On to `CCOc1ccc(-c2ccc3nc(N)nc(N4CCOCC4)c3n2)cc1F` [Example 166, 2-amino-4-morpholino-6-(3-fluoro-4-ethoxy-phenyl)-pyrido[3,2-d]pyrimidine], for which the IC50 in experiment [1] (Homo sapiens, RPMI-1788) was 700 nM; in experiment [2] (Homo sapiens, PBMC), 800 nM.

For `COc1ccc(-c2ccc3nc(N)nc(NCCNC(=O)COc4ccc(Cl)cc4)c3n2)cc1OC` [Example 265], the IC50 in experiment [1] (Homo sapiens, RPMI-1788) was 300 nM; in experiment [2] (Homo sapiens, PBMC) it was 3900 nM.

Regarding `Nc1nc(N2CCOCC2)c2nc(-c3ccc4[nH]ccc4c3)ccc2n1` [Example 237, 2-amino-4-morpholino-6-(5-indolyl)-pyrido[3,2-d]pyrimidine], the IC50 was found to be 800 nM in experiment [1] (Homo sapiens, RPMI-1788) and 2600 nM in experiment [2] (Homo sapiens, PBMC).

Consider `COc1ccc(-c2ccc3nc(N)nc(N4CCCC(C(=O)NCC(C)C)C4)c3n2)cc1OC` (stereo not shown) [Example 268, 2-amino-4-[(3-carboxylic acid isobutylamide)-piperidin-1-yl]-6-(3,4-dimethoxyphenyl)-pyrido[3,2-d]pyrimidine], for which the IC50 in experiment [1] (Homo sapiens, RPMI-1788) amounted to 500 nM; in experiment [2] (Homo sapiens, PBMC), 700 nM.

In the case of `COc1ccc(-c2ccc3nc(N)nc(N4CCCN(C(=O)Nc5cccc(C)c5)CC4)c3n2)cc1OC` [Example 250, 2-amino-4-[(N-3-methylphenylcarbamoyl)-homopiperazin-1-yl]-6-(3,4-dimethoxyphenyl)-pyrido[3,2-d]pyrimidine], the IC50 in experiment [1] (Homo sapiens, RPMI-1788) amounted to 8.5 nM; in experiment [2] (Homo sapiens, PBMC), 600 nM.

Take `Nc1nc(N2CCOCC2)c2nc(-c3ccncc3)ccc2n1` [Example 234, 2-amino-4-morpholino-6-(4-pyridinyl)-pyrido[3,2-d]pyrimidine]: the IC50 in experiment [1] (Homo sapiens, RPMI-1788) was 700 nM; in experiment [2] (Homo sapiens, PBMC), 500 nM.

Consider `COc1cc(-c2ccc3nc(N)nc(N4CCOCC4)c3n2)ccc1O` [Example 96, 2-amino-4-(N-morpholino)-6-(4-hydroxy-3-methoxy)-pyrido[3,2-d]pyrimidine], for which the results for the IC50 in experiment [1] and in experiment [2] were 800 nM and 600 nM, respectively.

As to `COc1ccc(-c2ccc3nc(N)nc(Nc4ccc5c(c4)OCO5)c3n2)cc1OC` [Example 28, 2-amino-4-[3,4-(methylenedioxy)aniline]-6-(3,4-dimethoxyphenyl)pyrido[3,2-d]pyrimidine], the IC50 in experiment [1] was 700 nM; in experiment [2], 800 nM.

Take `COc1ccc(-c2ccc3nc(N)nc(N4CCN(CC(=O)Nc5ccccn5)CC4)c3n2)cc1OC` [Example 274, 2-amino-4-(N-pyridinylacetamid-2-yl-piperazin-1-yl)-6-(3,4-dimethoxyphenyl)-pyrido[3,2-d]pyrimidine]: the IC50 in experiment [2] (Homo sapiens, PBMC) amounted to 80 nM.

As for `COc1ccc(-c2ccc3nc(N)nc(NCCCNC(=O)COc4ccc(Cl)cc4)c3n2)cc1OC` [Example 266, 2-amino-4-[3-N-(4-chlorophenoxy-acetyl)-3-amino-propane-amine-1-N-yl]-6-(3,4-dimethoxyphenyl)-pyrido[3,2-d]pyrimidine], the IC50 in experiment [1] (Homo sapiens, RPMI-1788) is 700 nM; in experiment [2] (Homo sapiens, PBMC), 900 nM.

Consider `COc1ccc(-c2ccc3nc(OC(C)CN4CCCC4)nc(N4CCN(C(=O)Nc5cccc(C)c5)CC4)c3n2)cc1OC` (stereo not shown) [Example 17], for which the IC50 turned out to be 2700 nM in experiment [1] and 5200 nM in experiment [2].

Consider `Nc1nc(N2CCN(CC(=O)Nc3nccs3)CC2)c2nc(-c3ccc4c(c3)OCO4)ccc2n1` [Example 191], for which the IC50 in experiment [1] (Homo sapiens, RPMI-1788) was 400 nM; in experiment [2] (Homo sapiens, PBMC), 3500 nM.

For the molecule `COc1ccc(-c2ccc3nc(N)nc(NCCCNC(=O)Nc4cccc(C)c4)c3n2)cc1OC` [Example 262, 2-amino-4-[(3-methylphenylcarbamoyl)-3-aminopropane-amino-1-N-yl]-6-(3,4-dimethoxyphenyl)-pyrido[3,2-d]pyrimidine], the IC50 in experiment [1] (Homo sapiens, RPMI-1788) was 500 nM; in experiment [2] (Homo sapiens, PBMC) it was 6900 nM.

Consider `COc1ccc(-c2ccc3nc(N)nc(N4CCN(CC(=O)N5CCCC5)CC4)c3n2)cc1OC` [Example 273, 2-amino-4-(N-pyrrolidinyl-acetamid-2-yl-piperazin-1-yl)-6-(3,4-dimethoxyphenyl)pyrido[3,2-d]pyrimidine], for which the IC50 in experiment [2] (Homo sapiens, PBMC) turned out to be 80 nM.

On to `COc1cc(-c2ccc3nc(N)nc(N4CCN(C(=O)Nc5ccc(F)cc5)CC4)c3n2)ccc1OC(C)C` [Example 103, 2-amino-4-[(N-4-fluoro-phenyl-carbamoyl)-piperazin-1-yl]-6-(4-isopropoxy-3-methoxy-phenyl)-pyrido[3,2-d]pyrimidine], for which the IC50 came to 70 nM in experiment [1] and 6400 nM in experiment [2].

For `COc1cc(-c2ccc3nc(N)nc(N4CCN(C(=O)Nc5ccc(F)cc5)CC4)c3n2)ccc1O` [Example 101, 2-amino-4-[(N-4-fluoro-phenyl-carbamoyl)-piperazin-1-yl]-6-(4-hydroxy-3-methoxy-phenyl)-pyrido[3,2-d]pyrimidine], the IC50 in experiment [1] came out at 500 nM; in experiment [2], 600 nM.

Regarding `COc1ccc(-c2ccc3nc(N)nc(N4CCN(Cc5ccccc5)CC4)c3n2)cc1OC` [Example 52, 2-amino-4-(1-benzylpiperazin-1-yl)-6-(3,4-dimethoxyphenyl)-pyrido[3,2-d]pyrimidine], the IC50 in experiment [1] was 800 nM; in experiment [2] it was 460 nM.

Regarding `COc1ccc(-c2ccc3nc(N)nc(NC4CCCN(C(=O)OCc5ccccc5)C4)c3n2)cc1OC` (stereo not shown) [Example 258, 2-amino-4-[(1-Cbz-piperidin-3-yl)amino]-6-(3,4-dimethoxyphenyl)-pyrido[3,2-d]pyrimidine], the IC50 amounted to 900 nM in experiment [1] (Homo sapiens, RPMI-1788) and 300 nM in experiment [2] (Homo sapiens, PBMC).

`COc1ccc(-c2ccc3ncnc(N4CCN(c5ccc(C)cc5)CC4)c3n2)cc1OC` [Example 105, 4-(4-methyl-phenyl-piperazin-1-yl)-6-(3,4-dimethoxy-phenyl)-pyrido[3,2-d]pyrimidine]: the IC50 in experiment [1] was 800 nM; in experiment [2] it was 90 nM.

Turning to `COc1ccc(-c2ccc3nc(N)nc(NCC(=O)N4CCN(Cc5ccccc5)CC4)c3n2)cc1OC` [Example 271, 2-amino-4-[2-(4-benzylpiperazin-1-yl)-2-oxo-ethane-amino]-6-(3,4-dimethoxyphenyl)-pyrido[3,2-d]pyrimidine], the IC50 in experiment [1] (Homo sapiens, RPMI-1788) was determined as 700 nM; in experiment [2] (Homo sapiens, PBMC), 500 nM.

Turning to `Nc1nc(N2CCN(C(=O)COc3ccc(Cl)cc3)CC2)c2nc(-c3ccc4c(c3)OCO4)ccc2n1` [Example 193, 2-amino-4-[N-(4-chlorophenoxy-acetyl)-piperazin-1-yl]-6-(3,4-methylenedioxyphenyl)-pyrido[3,2-d]pyrimidine], the IC50 in experiment [1] (Homo sapiens, RPMI-1788) came out at 40 nM; in experiment [2] (Homo sapiens, PBMC), 5800 nM.

For `CC(=O)N1CCN(c2nc(N)nc3ccc(-c4ccc5c(c4)OCCO5)nc23)CC1` [Example 199, 2-amino-4-[N-acetyl-piperazin-1-yl]-6-(1,4-benzodioxane)-pyrido[3,2-d]pyrimidine], the IC50 was determined as 4800 nM in experiment [1] (Homo sapiens, RPMI-1788) and 2900 nM in experiment [2] (Homo sapiens, PBMC).

For the molecule `COc1ccc(-c2ccc3nc(N)nc(NC4CCN(C(=O)Nc5cccc(C)c5)CC4)c3n2)cc1OC` [Example 263], the IC50 in experiment [1] (Homo sapiens, RPMI-1788) came out at 70 nM; in experiment [2] (Homo sapiens, PBMC), 500 nM.

In the case of `COc1ccc(-c2ccc3nc(N)nc(SC)c3n2)cc1OC` [Example 223, 2-amino-4-thiomethyl-6-(3,4-dimethoxyphenyl)-pyrido[3,2-d]pyrimidine], the results for the IC50 in experiment [1] and in experiment [2] were 900 nM and 800 nM, respectively.

For `COc1ccc(-c2ccc3nc(N)nc(OCCOc4ccccc4)c3n2)cc1OC` [Example 25, 2-amino-4-(2-phenoxyethoxy)-6-(3,4-dimethoxyphenyl)-pyrido[3,2-d]pyrimidine], the IC50 in experiment [1] (Homo sapiens, RPMI-1788) was 300 nM; in experiment [2] (Homo sapiens, PBMC) it was 700 nM.

Regarding `COc1ccc(-c2ccc3nc(N)nc(N4CCN(CC(=O)N5CCOCC5)CC4)c3c2)cc1OC` [Example 275, 2-amino-4-[N-(piperazino)-acetyl-morpholino]-6-(3,4-dimethoxyphenyl)-pyrido[3,2-d]pyrimidine], the IC50 in experiment [2] (Homo sapiens, PBMC) was 97 nM.

Regarding `COc1ccc(-c2ccc3nc(N)nc(NCCC(=O)N4CCN(C(C)=O)CC4)c3n2)cc1OC` [Example 272, 2-amino-4-[3-(4-acetylpiperazin-1-yl)-propan-3-one-1-yl-amino]-6-(3,4-dimethoxyphenyl)-pyrido[3,2-d]pyrimidine], the IC50 in experiment [2] (Homo sapiens, PBMC) amounted to 700 nM.

For the molecule `COc1ccc(-c2ccc3nc(N)nc(NCC(=O)N4CCN(C)CC4)c3n2)cc1OC` [Example 276, 2-amino-4-[2-amino-1-(4-methyl-piperazin-1-yl)-ethanone]-6-(3,4-dimethoxyphenyl)-pyrido[3,2-d]pyrimidine], the IC50 in experiment [2] (Homo sapiens, PBMC) amounted to 600 nM.

For the molecule `COc1ccc(-c2ccc3nc(N)nc(N4CCN(CC(=O)NCCc5ccccc5)CC4)c3n2)cc1OC` [Example 270, 2-amino-4-[4-(N-2-phenylethylacetamid-2-yl)piperazin-1-yl]-6-(3,4-dimethoxyphenyl)-pyrido[3,2-d]pyrimidine], the IC50 in experiment [2] (Homo sapiens, PBMC) was 300 nM.

The values are drawn from patent US20090264415A2 (priority 2004, published 2009).
